Results published in patent EP0068408A1 (priority 1981, dated 1983).
Values after ≈ are worked out from the molar mass of the structure shown. Like-named read-outs stand apart in the source and are kept apart here.

Assays:
[1] = Acute toxicity in mice (LD50); type: in vivo; settings: ddY male mice, suspended in 5% Arabic gum solution, observed for 7 days; for LD50 at 168 h: mouse, in vivo
Procedure: Experimental Example 7: Acute Toxicity in Mice
Each compound of the invention was suspended in 5% Arabic gum solution and given orally (p.o.) or intraperitoneally (i.p.) to groups of ten ddY male mice weighed from 24 to 26 g at the dosage volume of 10 ml/kg. […] LD50 was determined according to the method of Wilcoxon and Litchfield.

Coxsackie Type B5 = experiment: microbe, parasite or virus in culture; type: cell-based; settings: virus G = Coxsackie Type B5
Influenza A1 = experiment: microbe, parasite or virus in culture; type: cell-based
influenza A0 virus = experiment: animal or person; type: in vivo, mice; settings: for responders at 300 mg/kg / responders at 100 mg/kg / responders at 10 mg/kg / responders at 30 mg/kg: Mus musculus, 360 h, twice a day for 14 days, survivors at 15th day, read-out: Survival rate; for protective action against death due to the infection: result in words, Tables 3 and 4
Parainfluenza Type 3 = experiment: microbe, parasite or virus in culture; type: cell-based; settings: virus E = Parainfluenza Type 3
ECHO = experiment: microbe, parasite or virus in culture; type: cell-based
Influenza A0 = experiment: microbe, parasite or virus in culture; type: cell-based; settings: virus A = Influenza A0, MDCK, Vero and HEL cells, 2 or 3 days
Rhino = experiment: microbe, parasite or virus in culture; type: cell-based
Influenza B = experiment: microbe, parasite or virus in culture; type: cell-based
influenza virus A/WSN = experiment: animal or person; type: in vivo, mice; settings: in Mus musculus, 360 h, read-out: Survival rate
[2] = ip, i.p., read-out: LD50 value, Intraperitoneal administration
[3] = po, p.o., read-out: LD50 value, Oral administration

Row | SMILES | MIC (Coxsackie Type B5) [µg/mL] | MIC (Influenza A1) [µg/mL] | responders at 300 mg/kg (influenza A0 virus; oral) [%] | responders at 100 mg/kg (influenza A0 virus; ip, intraperitoneal) [%] | MIC (Parainfluenza Type 3) [µg/mL] | MIC (ECHO) [µg/mL] | MIC (Influenza A0) [µg/mL] | LD50 at 168 h [1, 2] [mg/kg] | LD50 at 168 h [1, 3] [mg/kg] | MIC (Rhino) [µg/mL] | MIC (Influenza B) [µg/mL] | further results
1 | CNS(=O)(=O)c1cc(C(=O)O)ccc1Cl [Compound 1] | – | – | – | – | – | – | – | – | – | – | – | LD50 value, Intraperitoneal administration ([1]; i.p.): >1,000 mg/kg; LD50 value, Oral administration ([1]; p.o.): >3,000 mg/kg
2 | CCNS(=O)(=O)c1cc(C(=O)O)ccc1Cl [Compound 2] | – | – | – | – | – | – | – | – | – | – | – | LD50 value, Intraperitoneal administration ([1]; i.p.): >1,000 mg/kg; LD50 value, Oral administration ([1]; p.o.): >3,000 mg/kg
3 | CN(C)S(=O)(=O)c1cc(C(=O)O)ccc1Cl [Compound 3] | – | – | – | – | – | – | – | – | – | – | – | LD50 value, Intraperitoneal administration ([1]; i.p.): >1,000 mg/kg; LD50 value, Oral administration ([1]; p.o.): >3,000 mg/kg
4 | CONS(=O)(=O)c1cc(C(=O)O)ccc1Cl [Compound 4] | 300 (≈ 1130 µM) | 300 (≈ 1130 µM) | 40 | 50 | 300 (≈ 1130 µM) | 300 (≈ 1130 µM) | 30 (≈ 113 µM) | > 1000 | > 3000 | 300 (≈ 1130 µM) | 100 (≈ 376 µM) | –
5 | O=C(O)c1ccc(Cl)c(S(=O)(=O)NCCO)c1 [Compound 5] | 300 (≈ 1070 µM) | 300 (≈ 1070 µM) | 50 | 40 | 100 (≈ 358 µM) | 300 (≈ 1070 µM) | 30 (≈ 107 µM) | > 1000 | > 3000 | 300 (≈ 1070 µM) | 300 (≈ 1070 µM) | –
6 | CN(CCO)S(=O)(=O)c1cc(C(=O)O)ccc1Cl [Compound 6] | 300 (≈ 1020 µM) | 300 (≈ 1020 µM) | 40 | 60 | 300 (≈ 1020 µM) | 100 (≈ 340 µM) | 30 (≈ 102 µM) | > 1000 | > 3000 | 300 (≈ 1020 µM) | 300 (≈ 1020 µM) | –
7 | NNS(=O)(=O)c1cc(C(=O)O)ccc1Cl [Compound 7] | 300 (≈ 1200 µM) | 300 (≈ 1200 µM) | 60 | – | 300 (≈ 1200 µM) | 300 (≈ 1200 µM) | 10 (≈ 39.9 µM) | 746 | > 3000 | 300 (≈ 1200 µM) | 100 (≈ 399 µM) | responders at 100 mg/kg (influenza A0 virus; oral): 40%; responders at 10 mg/kg (influenza A0 virus; ip, intraperitoneal): 30%; responders at 30 mg/kg (influenza A0 virus; ip, intraperitoneal): 50%; protective action against death due to the infection (influenza A0 virus): extremely excellent activity
8 | CC(C)NS(=O)(=O)c1cc(C(=O)O)ccc1Cl [Compound 8] | – | – | – | – | – | – | – | – | – | – | – | LD50 value, Intraperitoneal administration ([1]; i.p.): >1,000 mg/kg; LD50 value, Oral administration ([1]; p.o.): >3,000 mg/kg
9 | O=C(O)c1ccc(Cl)c(S(=O)(=O)Nc2ccccc2)c1 [Compound 9] | – | – | – | – | – | – | – | – | – | – | – | LD50 value, Oral administration ([1]; p.o.): >3,000 mg/kg
10 | O=C(O)c1ccc(Cl)c(S(=O)(=O)NNc2ccc(Cl)nn2)c1 [Compound 10] | 300 (≈ 826 µM) | 300 (≈ 826 µM) | 40 | 40 | 300 (≈ 826 µM) | 100 (≈ 275 µM) | 30 (≈ 82.6 µM) | > 1000 | > 3000 | 300 (≈ 826 µM) | 300 (≈ 826 µM) | –
11 | O=C(O)c1ccc(Cl)c(S(=O)(=O)N2CCOCC2)c1 [Compound 11] | – | – | – | – | – | – | – | – | – | – | – | LD50 value, Intraperitoneal administration ([1]; i.p.): >1,000 mg/kg; LD50 value, Oral administration ([1]; p.o.): >3,000 mg/kg
12 | O=C(O)c1ccc(Cl)c(S(=O)(=O)N2CCCC2)c1 [Compound 12] | 100 (≈ 345 µM) | 300 (≈ 1040 µM) | 40 | 40 | 300 (≈ 1040 µM) | 300 (≈ 1040 µM) | 30 (≈ 104 µM) | > 1000 | > 3000 | 300 (≈ 1040 µM) | 300 (≈ 1040 µM) | –
13 | CN1CCN(S(=O)(=O)c2cc(C(=O)O)ccc2Cl)CC1 [Compound 13] | 100 (≈ 314 µM) | 100 (≈ 314 µM) | 70 | – | 300 (≈ 941 µM) | 300 (≈ 941 µM) | 10 (≈ 31.4 µM) | > 1000 | > 3000 | 300 (≈ 941 µM) | 100 (≈ 314 µM) | responders at 100 mg/kg (influenza A0 virus; oral): 50%; responders at 10 mg/kg (influenza A0 virus; ip, intraperitoneal): 40%; responders at 30 mg/kg (influenza A0 virus; ip, intraperitoneal): 50%; protective action against death due to the infection (influenza A0 virus): extremely excellent activity
14 | Nc1cc(Cl)c(S(N)(=O)=O)cc1C(=O)O [Compound 14] | 300 (≈ 1200 µM) | 100 (≈ 399 µM) | 50 | 40 | 300 (≈ 1200 µM) | 300 (≈ 1200 µM) | 30 (≈ 120 µM) | > 1000 | > 3000 | 300 (≈ 1200 µM) | 300 (≈ 1200 µM) | –
15 | NS(=O)(=O)c1cc(C(=O)O)cc([N+](=O)[O-])c1Cl [Compound 15] | 300 (≈ 1070 µM) | 300 (≈ 1070 µM) | 50 | 50 | 300 (≈ 1070 µM) | 100 (≈ 356 µM) | 30 (≈ 107 µM) | > 1000 | > 3000 | 300 (≈ 1070 µM) | 300 (≈ 1070 µM) | –
16 | NS(=O)(=O)c1cc(C(=O)O)c(F)cc1Cl [Compound 16] | 30 (≈ 118 µM) | 300 (≈ 1180 µM) | 50 | 50 | 300 (≈ 1180 µM) | 300 (≈ 1180 µM) | 30 (≈ 118 µM) | > 1000 | > 3000 | 300 (≈ 1180 µM) | 300 (≈ 1180 µM) | –
17 | NS(=O)(=O)c1cc(C(=O)O)c(Cl)cc1F [Compound 17] | 300 (≈ 1180 µM) | 300 (≈ 1180 µM) | 40 | 40 | 300 (≈ 1180 µM) | 300 (≈ 1180 µM) | 30 (≈ 118 µM) | > 1000 | > 3000 | 300 (≈ 1180 µM) | 300 (≈ 1180 µM) | –
18 | NS(=O)(=O)c1cc(C(=O)O)c(Br)cc1Cl [Compound 18] | 30 (≈ 95.4 µM) | 300 (≈ 954 µM) | 70 | 70 | 300 (≈ 954 µM) | 3 (≈ 9.54 µM) | 30 (≈ 95.4 µM) | > 1000 | > 3000 | 300 (≈ 954 µM) | 300 (≈ 954 µM) | responders at 100 mg/kg (influenza A0 virus; oral): 50%; responders at 30 mg/kg (influenza A0 virus; ip, intraperitoneal): 50%; protective action against death due to the infection (influenza A0 virus): extremely excellent activity
19 | NS(=O)(=O)c1cc(C(=O)O)c(Cl)cc1Cl [Compound 19] | – | – | – | – | – | – | – | – | – | – | – | protective action against death due to the infection (influenza A0 virus): extremely excellent activity; LD50 value, Intraperitoneal administration ([1]; i.p.): >1,000 mg/kg; LD50 value, Oral administration ([1]; p.o.): >3,000 mg/kg
20 | NS(=O)(=O)c1cc(C(=O)O)cc(Cl)c1Cl [Compound 20] | 300 (≈ 1110 µM) | 100 (≈ 370 µM) | 80 | 70 | 30 (≈ 111 µM) | 100 (≈ 370 µM) | 10 (≈ 37 µM) | > 1000 | > 3000 | 30 (≈ 111 µM) | 100 (≈ 370 µM) | responders at 30 mg/kg (influenza A0 virus; oral): 40%; responders at 100 mg/kg (influenza A0 virus; oral): 60%; responders at 10 mg/kg (influenza A0 virus; ip, intraperitoneal): 40%; responders at 30 mg/kg (influenza A0 virus; ip, intraperitoneal): 60%; protective action against death due to the infection (influenza A0 virus): extremely excellent activity
21 | N=C(N)NS(=O)(=O)c1cc(C(=O)O)c(Cl)cc1Cl [Compound 21] | 300 (≈ 961 µM) | 300 (≈ 961 µM) | 50 | 40 | 300 (≈ 961 µM) | 300 (≈ 961 µM) | 100 (≈ 320 µM) | 987 | > 3000 | 100 (≈ 320 µM) | 300 (≈ 961 µM) | –
22 | COC(=O)c1ccc(F)c(S(N)(=O)=O)c1 [Compound 28] | – | – | – | – | – | – | – | – | – | – | – | LD50 value, Intraperitoneal administration ([1]; i.p.): >1,000 mg/kg; LD50 value, Oral administration ([1]; p.o.): >3,000 mg/kg
23 | CCOC(=O)c1cc(S(N)(=O)=O)c(Cl)cc1Cl [Compound 32] | – | – | – | – | – | – | – | > 1000 | > 3000 | – | – | responders at 100 mg/kg (influenza virus A/WSN; po): 40%; responders at 300 mg/kg (influenza virus A/WSN; po): 50%
24 | CC(C)OC(=O)c1cc(S(N)(=O)=O)c(Cl)cc1Cl [Compound 34] | – | – | – | – | – | – | – | > 1000 | > 3000 | – | – | responders at 30 mg/kg (influenza virus A/WSN; ip): 30%; responders at 100 mg/kg (influenza virus A/WSN; ip): 40%
25 | CCC(C)OC(=O)c1cc(S(N)(=O)=O)c(Cl)cc1Cl (stereo not shown) [Compound 36] | – | – | – | – | – | – | – | > 1000 | > 3000 | – | – | responders at 30 mg/kg (influenza virus A/WSN; ip): 30%; responders at 100 mg/kg (influenza virus A/WSN; ip): 40%
26 | NS(=O)(=O)c1cc(C(=O)OC2CCCCC2)c(Cl)cc1Cl [Compound 38] | – | – | – | – | – | – | – | > 1000 | > 3000 | – | – | responders at 30 mg/kg (influenza virus A/WSN; ip): 30%; responders at 100 mg/kg (influenza virus A/WSN; ip): 40%
27 | NS(=O)(=O)c1cc(C(=O)OCc2ccccc2)c(Cl)cc1Cl [Compound 39] | – | – | – | – | – | – | – | > 1000 | > 3000 | – | – | responders at 100 mg/kg (influenza virus A/WSN; po): 30%; responders at 300 mg/kg (influenza virus A/WSN; po): 40%
28 | CCOC(=O)c1cc(S(N)(=O)=O)c(F)cc1Cl [Compound 42] | – | – | – | – | – | – | – | > 1000 | > 3000 | – | – | responders at 100 mg/kg (influenza virus A/WSN; po): 40%; responders at 300 mg/kg (influenza virus A/WSN; po): 50%
